# According to patent US4044043A, “Derivatives of 9-oxo-13-trans-prostenoic acid esters” (American Cyanamid Company, priority 1975, dated 1977):
# System: bronchospasms elicited by 5-hydroxytryptamine
# Assay: Bronchodilator Activity (Konzett Assay) against 5-hydroxytryptamine
# Assay type: in vivo, guinea pigs
# Details: Cavia porcellus; three logarithmic cumulative intravenous doses
# In short: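 Guinea pigs given intravenous spasmogen (5-hydroxytryptamine, histamine or acetylcholine) per Konzett procedure. ED50 derived from three logarithmic cumulative intravenous doses of test compound.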
row,Compound,ED50 [mg/kg]
1,CCCCCC/C=C/[C@@H]1CCCC(=O)[C@H]1CCCCCCC(=O)O (relative stereo) [9-oxo-10a-homo-13-trans-prostenoic acid],> 10.1
2,CCCCCC/C=C/[C@H]1CCC(=O)[C@@H]1CCCCCCC(=O)O (relative stereo) [9-oxo-13-trans-prostenoic acid],0.077
3,O=C(O)CCCCCC[C@H]1C(=O)CC[C@@H]1/C=C/CCCCCCCl (relative stereo) [20-chloro-9-oxo-13-trans-prostenoic acid],2.39
4,"CC(C)CC/C=C/[C@@H]1CCC(=O)[C@H]1CCCCCCC(=O)O (relative stereo) [17-methyl-9-oxo-19,20-dinor-13-trans-prostenoic acid]",2.8
5,CC/C=C\CC/C=C/[C@@H]1CCC(=O)[C@H]1CCCCCCC(=O)O (relative stereo) [9-oxo-13-trans-17-cis-prostadienoic acid],0.422

# System: diastolic blood pressure
# Assay: Prostaglandin-like hypotensive activity in anesthetized rats (minimal dose for about 10 mm. decrease in diastolic blood pressure)
# Assay type: in vivo, Male Wistar strain rats
# Details: Rattus norvegicus; intravenous; decrease of about 10 mm. in diastolic blood pressure
# In short: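 Male Wistar rats (~250 g), pentobarbital 30 mg./kg. i.v. and hexamethonium 2 mg./kg. i.v., iliac artery cannulated for blood pressure. Compounds in saline-Tween 80 given i.v. at 0.1–10.0 mg./kg.; value is the minimal dose giving ~10 mm. drop in diastolic pressure.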
row,Compound,minimal effective dose [mg/kg]
1,CCCCCC/C=C/[C@@H]1CCCC(=O)[C@H]1CCCCCCC(=O)O (relative stereo) [9-oxo-10a-homo-13-trans-prostenoic acid],0.2
2,CCCCCC/C=C/[C@H]1CCC(=O)[C@@H]1CCCCCCC(=O)O (relative stereo) [9-oxo-13-trans-prostenoic acid],0.4
3,O=C(O)CCCCCC[C@H]1C(=O)CC[C@@H]1/C=C/CCCCCCCl (relative stereo) [20-chloro-9-oxo-13-trans-prostenoic acid],0.5
4,"CC(C)CC/C=C/[C@@H]1CCC(=O)[C@H]1CCCCCCC(=O)O (relative stereo) [17-methyl-9-oxo-19,20-dinor-13-trans-prostenoic acid]",0.5
5,CC/C=C\CC/C=C/[C@@H]1CCC(=O)[C@H]1CCCCCCC(=O)O (relative stereo) [9-oxo-13-trans-17-cis-prostadienoic acid],0.2

# System: Microsporum gypseum ATCC 14683
# Assay: agar-dilution streak-plate antimicrobial assay
# Assay type: cell-based
# Details: Nannizzia gypsea, ATCC14683, read-out: Minimal inhibitory conc. (2)
# In short: (§1)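 Stock 2.5 mg/ml → two-fold serial dilutions → 1 ml each into 9 ml warm agar (bacterial or fungal medium) → loop streak of overnight broth culture or spore suspension → incubate → visual read. MIC = complete inhibition, µg/ml.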
row,Compound,MIC [µg/mL]
1,CCCCCC/C=C/[C@H]1CCC(=O)[C@@H]1CCCCCCC(=O)O (relative stereo) [9-oxo-13-trans-prostenoic acid],50
2,CC/C=C\CC/C=C/[C@@H]1CCC(=O)[C@H]1CCCCCCC(=O)O (relative stereo) [9-oxo-13-trans-17-cis-prostadienoic acid],62

# Continued, values first:
row,MIC [µg/mL],Compound
1,62,O=C(O)CCCCCC[C@H]1C(=O)CC[C@@H]1/C=C/CCCCCCCl (relative stereo) [20-chloro-9-oxo-13-trans-prostenoic acid]
2,50,"CC(C)CC/C=C/[C@@H]1CCC(=O)[C@H]1CCCCCCC(=O)O (relative stereo) [17-methyl-9-oxo-19,20-dinor-13-trans-prostenoic acid]"

# System: Microsporum canis ATCC 10214
# Assay: agar-dilution streak-plate antimicrobial assay
# Assay type: cell-based
# Details: ATCC10214, read-out: Minimal inhibitory conc. (1)
# In short: as §1
row,Compound,MIC [µg/mL]
1,CCCCCC/C=C/[C@H]1CCC(=O)[C@@H]1CCCCCCC(=O)O (relative stereo) [9-oxo-13-trans-prostenoic acid],50
2,CC/C=C\CC/C=C/[C@@H]1CCC(=O)[C@H]1CCCCCCC(=O)O (relative stereo) [9-oxo-13-trans-17-cis-prostadienoic acid],125

# Second part, the molecule after the results:
row,MIC [µg/mL],Compound
1,250,O=C(O)CCCCCC[C@H]1C(=O)CC[C@@H]1/C=C/CCCCCCCl (relative stereo) [20-chloro-9-oxo-13-trans-prostenoic acid]
2,50,"CC(C)CC/C=C/[C@@H]1CCC(=O)[C@H]1CCCCCCC(=O)O (relative stereo) [17-methyl-9-oxo-19,20-dinor-13-trans-prostenoic acid]"

# System: Streptococcus pyogenes C 203
# Assay: agar-dilution streak-plate antimicrobial assay
# Assay type: cell-based
# Details: C203, read-out: Minimal inhibitory conc. (8)
# In short: as §1
row,Compound,MIC [µg/mL]
1,CCCCCC/C=C/[C@@H]1CCCC(=O)[C@H]1CCCCCCC(=O)O (relative stereo) [9-oxo-10a-homo-13-trans-prostenoic acid],10
2,CCCCCC/C=C/[C@H]1CCC(=O)[C@@H]1CCCCCCC(=O)O (relative stereo) [9-oxo-13-trans-prostenoic acid],62
3,CC/C=C\CC/C=C/[C@@H]1CCC(=O)[C@H]1CCCCCCC(=O)O (relative stereo) [9-oxo-13-trans-17-cis-prostadienoic acid],62

# More lines, now with the values ahead:
row,MIC [µg/mL],Compound
1,62,O=C(O)CCCCCC[C@H]1C(=O)CC[C@@H]1/C=C/CCCCCCCl (relative stereo) [20-chloro-9-oxo-13-trans-prostenoic acid]
2,62,"CC(C)CC/C=C/[C@@H]1CCC(=O)[C@H]1CCCCCCC(=O)O (relative stereo) [17-methyl-9-oxo-19,20-dinor-13-trans-prostenoic acid]"

# System: Staphylococcus aureus Rose ATCC 14154
# Assay: agar-dilution streak-plate antimicrobial assay
# Assay type: cell-based
# Details: ATCC14154, read-out: Minimal inhibitory conc. (7)
# In short: as §1
row,Compound,MIC [µg/mL]
1,CCCCCC/C=C/[C@@H]1CCCC(=O)[C@H]1CCCCCCC(=O)O (relative stereo) [9-oxo-10a-homo-13-trans-prostenoic acid],100
2,CCCCCC/C=C/[C@H]1CCC(=O)[C@@H]1CCCCCCC(=O)O (relative stereo) [9-oxo-13-trans-prostenoic acid],250
3,CC/C=C\CC/C=C/[C@@H]1CCC(=O)[C@H]1CCCCCCC(=O)O (relative stereo) [9-oxo-13-trans-17-cis-prostadienoic acid],250

# Second part, the molecule after the results:
row,MIC [µg/mL],Compound
1,250,O=C(O)CCCCCC[C@H]1C(=O)CC[C@@H]1/C=C/CCCCCCCl (relative stereo) [20-chloro-9-oxo-13-trans-prostenoic acid]
2,250,"CC(C)CC/C=C/[C@@H]1CCC(=O)[C@H]1CCCCCCC(=O)O (relative stereo) [17-methyl-9-oxo-19,20-dinor-13-trans-prostenoic acid]"

# System: Trichophyton rubrum E 97
# Assay: agar-dilution streak-plate antimicrobial assay
# Assay type: cell-based
# Details: E97, read-out: Minimal inhibitory conc. (5)
# In short: as §1
row,Compound,MIC [µg/mL]
1,CCCCCC/C=C/[C@H]1CCC(=O)[C@@H]1CCCCCCC(=O)O (relative stereo) [9-oxo-13-trans-prostenoic acid],250
2,CC/C=C\CC/C=C/[C@@H]1CCC(=O)[C@H]1CCCCCCC(=O)O (relative stereo) [9-oxo-13-trans-17-cis-prostadienoic acid],125

# Next, values leading:
row,MIC [µg/mL],Compound
1,62,O=C(O)CCCCCC[C@H]1C(=O)CC[C@@H]1/C=C/CCCCCCCl (relative stereo) [20-chloro-9-oxo-13-trans-prostenoic acid]
2,50,"CC(C)CC/C=C/[C@@H]1CCC(=O)[C@H]1CCCCCCC(=O)O (relative stereo) [17-methyl-9-oxo-19,20-dinor-13-trans-prostenoic acid]"

# System: Trichophyton tonsurans NIH 662
# Assay: agar-dilution streak-plate antimicrobial assay
# Assay type: cell-based
# Details: NIH662, read-out: Minimal inhibitory conc. (3)
# In short: as §1
row,Compound,MIC [µg/mL]
1,CCCCCC/C=C/[C@@H]1CCCC(=O)[C@H]1CCCCCCC(=O)O (relative stereo) [9-oxo-10a-homo-13-trans-prostenoic acid],100
2,CCCCCC/C=C/[C@H]1CCC(=O)[C@@H]1CCCCCCC(=O)O (relative stereo) [9-oxo-13-trans-prostenoic acid],50
3,CC/C=C\CC/C=C/[C@@H]1CCC(=O)[C@H]1CCCCCCC(=O)O (relative stereo) [9-oxo-13-trans-17-cis-prostadienoic acid],62

# Second part, the molecule after the results:
row,MIC [µg/mL],Compound
1,16,O=C(O)CCCCCC[C@H]1C(=O)CC[C@@H]1/C=C/CCCCCCCl (relative stereo) [20-chloro-9-oxo-13-trans-prostenoic acid]
2,25,"CC(C)CC/C=C/[C@@H]1CCC(=O)[C@H]1CCCCCCC(=O)O (relative stereo) [17-methyl-9-oxo-19,20-dinor-13-trans-prostenoic acid]"

# System: Mycobacterium smegmatis ATCC 606
# Assay: agar-dilution streak-plate antimicrobial assay
# Assay type: cell-based
# Details: Mycolicibacterium smegmatis, ATCC606, read-out: Minimal inhibitory conc. (6)
# In short: as §1
row,Compound,MIC [µg/mL]
1,CCCCCC/C=C/[C@@H]1CCCC(=O)[C@H]1CCCCCCC(=O)O (relative stereo) [9-oxo-10a-homo-13-trans-prostenoic acid],25
2,CCCCCC/C=C/[C@H]1CCC(=O)[C@@H]1CCCCCCC(=O)O (relative stereo) [9-oxo-13-trans-prostenoic acid],62
3,CC/C=C\CC/C=C/[C@@H]1CCC(=O)[C@H]1CCCCCCC(=O)O (relative stereo) [9-oxo-13-trans-17-cis-prostadienoic acid],62

# The next lines start with the values.
row,MIC [µg/mL],Compound
1,250,O=C(O)CCCCCC[C@H]1C(=O)CC[C@@H]1/C=C/CCCCCCCl (relative stereo) [20-chloro-9-oxo-13-trans-prostenoic acid]
2,62,"CC(C)CC/C=C/[C@@H]1CCC(=O)[C@H]1CCCCCCC(=O)O (relative stereo) [17-methyl-9-oxo-19,20-dinor-13-trans-prostenoic acid]"

# System: Trichophyton mentagrophytes E 11
# Assay: agar-dilution streak-plate antimicrobial assay
# Assay type: cell-based
# Details: E11, read-out: Minimal inhibitory conc. (4)
# In short: as §1
row,Compound,MIC [µg/mL]
1,CCCCCC/C=C/[C@@H]1CCCC(=O)[C@H]1CCCCCCC(=O)O (relative stereo) [9-oxo-10a-homo-13-trans-prostenoic acid],100
2,CCCCCC/C=C/[C@H]1CCC(=O)[C@@H]1CCCCCCC(=O)O (relative stereo) [9-oxo-13-trans-prostenoic acid],50
3,CC/C=C\CC/C=C/[C@@H]1CCC(=O)[C@H]1CCCCCCC(=O)O (relative stereo) [9-oxo-13-trans-17-cis-prostadienoic acid],62

# The remaining lines, values ahead:
row,MIC [µg/mL],Compound
1,62,O=C(O)CCCCCC[C@H]1C(=O)CC[C@@H]1/C=C/CCCCCCCl (relative stereo) [20-chloro-9-oxo-13-trans-prostenoic acid]
2,25,"CC(C)CC/C=C/[C@@H]1CCC(=O)[C@H]1CCCCCCC(=O)O (relative stereo) [17-methyl-9-oxo-19,20-dinor-13-trans-prostenoic acid]"
